The record followed here is patent publication US10322107B2, “N-methyl-N-(1-phenyl-2-(1-pyrrolidinyl)ethyl)-2-aminophenylacetamide derivatives agonists for the kappa opioid receptor” (Nektar Therapeutics, priority 2014, dated 2019).

Where two headings read alike, the source gives them in different places.

The target in test [1] is recombinant human kappa (KOR) opioid receptor (Homo sapiens, UniProt P41145). The test is described as follows: Competitive radioligand binding at KOR ([3H]diprenorphine), CHO-K1 membranes. The following applies: for Ki: Cheng Prusoff correction using experimental Kd of radioligand, read-out: Kappa Opioid Receptor Ki.
The target in test [2] is T1, recombinant human mu (MOR) opioid receptor (Homo sapiens, UniProt P35372).
T1 construct: expressed in transfected cells; host or cells: CHO-K1 cells (membranes)
The test is described as follows: Competitive radioligand binding at MOR ([3H]naloxone), single concentration, CHO-K1 membranes. To be noted: 10 μM test compound; percent inhibition of specific [3H]naloxone (4 nM) binding; read-out: Mu Opioid Receptor Mu Receptor Inhibition % inhib @ 10 uM. The method, then:
The binding affinities of certain compounds of the present invention were evaluated using radioligand binding assays in membranes prepared from CHO-K1 cells expressing recombinant human kappa (KOR) or mu (MOR) opioid receptors.
Competition binding experiments were conducted by incubating membrane protein to equilibrium in triplicate in the presence of a fixed concentration of radioligand and increasing concentrations of test compound for evaluation of binding to KOR or single concentration (10 μM) of test compound for evaluation of binding to MOR in 101 μL final volume. The radioligands used were specific for each receptor type, and the assay conditions are described in Table 1. Following incubations, the membranes were rapidly filtered through GF/B filter plate (presoaked with 0.5% polyethyleneimine), washed five times with cold 50 mM Tris-HCl, pH 7.5, and the bound radioactivity was then measured by liquid scintillation counting. Non-specific binding was measured in the presence of excess ligand; this value was subtracted from the total binding to yield the specific binding at each test concentration.
Ki (affinity of test compound) was obtained using the Cheng Prusoff correction using experimental Kd (affinity of radioligand) values that were previously determined under these assay conditions. For MOR binding, compounds were tested at one concentration, 10 μM, to evaluate its ability to inhibit specific radioligand binding. The values are expressed as percent inhibition of specific binding and greater than 50% inhibition of binding was considered to be significant.

Test [3] deals with T2, KOR (kappa opioid receptor) (Homo sapiens, UniProt P41145).
T2 construct: expressed in transfected cells
Put plainly: Inhibition of cAMP accumulation in forskolin-stimulated CHO-K1 cells stably expressing KOR. The class given is cell-based. (cAMP levels reflect the balance of adenylyl cyclase and phosphodiesterase activity.)

Where [4] appears, read: read-out: Kappa Opioid Receptor IC50.

For orientation: Ki means a measure of affinity in units of concentration, obtained from inhibition or displacement. As usually defined, the IC50 is the midpoint of a concentration-inhibition curve. By inhibition is commonly meant the relative decrease from the control value, in per cent. In general, EC50 refers to the concentration needed to bring the measured effect to its halfway point. The low end stands for an effect from little substance, the high end for a need for much substance. As to `COCCN(CCOC)S(=O)(=O)Nc1cccc([C@@H](CN2CCCC2)N(C)C(=O)Cc2ccc(Cl)c(Cl)c2)c1` [Example 9, (S)—N-(1-(3-((N,N-bis(2-methoxyethyl)sulfamoyl)amino)phenyl)-2-(pyrrolidin-1-yl)ethyl)-2-(3,4-dichlorophenyl)-N-methylacetamide], the Ki in test [1] turned out to be 0.47 nM. The IC50 in test [1] (setting [4]) was determined as 3.58 nM. The inhibition at 10 µM in test [2] was 101%. The same compound returned a 50% effective concentration (EC50) in test [3] of 0.5 nM.

On to `CN(C(=O)Cc1ccc(Cl)c(Cl)c1)[C@H](CN1CCCC1)c1cccc(NS(=O)(=O)c2cn(C)nc2C(F)(F)F)c1` [Example 5, (S)-2-(3,4-dichlorophenyl)-N-methyl-N-(1-(3-(1-methyl-3-(trifluoromethyl)-1H-pyrazole-4-sulfonamido)phenyl)-2-(pyrrolidin-1-yl)ethyl)acetamide], for which the Ki in test [1] amounted to 1.01 nM. The IC50 in test [1] (setting [4]) is 7.74 nM. Further, the inhibition at 10 µM in test [2] was 97%. Also, in test [3], the EC50 turned out to be 1.35 nM.

For the compound `COCCN(C)S(=O)(=O)Nc1cccc([C@@H](CN2CCCC2)N(C)C(=O)Cc2ccc(Cl)c(Cl)c2)c1` [Example 7], the Ki in test [1] came to 0.09 nM. In addition, the 50% inhibitory concentration (IC50) in test [1] (setting [4]) was 0.67 nM. Further, the inhibition at 10 µM in test [2] turned out to be 99.9%. For the same compound, in test [3], the 50% effective concentration (EC50) amounted to 0.19 nM.

`CC(O)CS(=O)(=O)Nc1cccc([C@@H](CN2CCCC2)N(C)C(=O)Cc2ccc(C(F)(F)F)cc2)c1` (stereo partly drawn) [Example 13, N-((1S)-1-(3-(2-hydroxypropylsulfonamido)phenyl)-2-(pyrrolidin-1-yl)ethyl)-N-methyl-2-(4-(trifluoromethyl)phenyl)acetamide]: the inhibitory constant (Ki) in test [1] was 0.1 nM. In addition, the concentration for half-maximal inhibition (IC50) in test [1] (setting [4]) is 0.75 nM. The inhibition at 10 µM in test [2] worked out at 95.4%. The compound also showed an EC50 in test [3] of 0.067 nM.

Consider `Cc1ccc(CC(=O)N(C)[C@H](CN2CC[C@H](O)C2)c2ccc(OCCO)cc2)cn1` [Example 16, N-{(1S)-1-[4-(2-Hydroxyethoxy)phenyl]-2-[(3S)-3-hydroxypyrrolidin-1-yl]ethyl}-N-methyl-2-(6-methylpyridin-3-yl)acetamide], for which, in test [1], the inhibition constant (Ki) was found to be 1.34 nM. For the same compound, the IC50 in test [1] (setting [4]) worked out at 10.3 nM. Further, in test [2], the inhibition at 10 µM turned out to be 28.4%. In test [3], this compound had an EC50 of 0.294 nM.

Turning to `CN(C(=O)Cc1nccs1)[C@H](CN1CC[C@H](O)C1)c1ccc(OCCO)cc1` [Example 18, N-{(1S)-1-[4-(2-Hydroxyethoxy)phenyl]-2-[(3S)-3-hydroxypyrrolidin-1-yl]ethyl}-N-methyl-2-(1,3-thiazol-2-yl)acetamide], in test [1], the concentration for half-maximal inhibition (IC50) was found to be 135 nM and the Ki turned out to be 17.6 nM. The inhibition at 10 µM in test [2] is -3.2%. In test [3], this compound showed an EC50 of 4.67 nM.

In the case of `CN(C(=O)Cc1ccc(F)cc1F)[C@H](CN1CC[C@H](OCCO)C1)c1ccc(OCCO)cc1` [Example 20, 2-(2,4-difluorophenyl)-N—((S)-1-(4-(2-hydroxyethoxy)phenyl)-2-((S)-3-(2-hydroxyethoxy)pyrrolidin-1-yl)ethyl)-N-methylacetamide], the Ki in test [1] is 7490 nM. Besides, the IC50 in test [1] (inhibition of specific [3H]diprenorphine (1 nM) binding, one experiment in triplicate, read-out: Kappa Opioid Receptor IC50) was 57400 nM. In addition, the inhibition at 10 µM in test [2] is -29.4%. For the same compound, in test [3], a half-maximal response (EC50) required 2670 nM.

On to `CC(O)CS(=O)(=O)Nc1cccc([C@@H](CN2CCCC2)N(C)C(=O)Cc2ccc(Cl)c(Cl)c2)c1` (stereo partly drawn) [Example 8, 2-(3,4-dichlorophenyl)-N-((1S)-1-(3-(2-hydroxypropylsulfonamido)phenyl)-2-(pyrrolidin-1-yl)ethyl)-N-methylacetamide], for which, in test [1], the inhibition constant Ki worked out at 0.05 nM. The 50% inhibitory concentration (IC50) in test [1] (setting [4]) came to 0.35 nM. Besides, the inhibition at 10 µM in test [2] is 99%. Besides, a half-maximal effect in test [3] (EC50) was put at 0.06 nM.

As for `CN(C(=O)Cc1ccc(F)cc1F)[C@H](CN1CC[C@H](O)C1)c1ccc(OCCO)cc1` [Example 15, 2-(2,4-Difluorophenyl)-N-{(1S)-1-[4-(2-hydroxyethoxy)phenyl]-2-[(3S)-3-hydroxypyrrolidin-1-yl]ethyl}-N-methylacetamide], the inhibition constant Ki in test [1] is 0.69 nM. In addition, in test [1] (setting [4]), the IC50 worked out at 5.27 nM. Besides, the inhibition at 10 µM in test [2] came to 23.5%. This compound had a concentration for a half-maximal effect (EC50) in test [3] of 0.164 nM.

Turning to `CN(C(=O)Cc1ccc(Cl)c(Cl)c1)[C@H](CN1CCCC1)c1cccc(NS(=O)(=O)c2cn(C)c(=O)n(C)c2=O)c1` [Example 2, (S)-2-(3,4-dichlorophenyl)-N-(1-(3-(1,3-dimethyl-2,4-dioxo-1,2,3,4-tetrahydropyrimidine-5-sulfonamido)phenyl)-2-(pyrrolidin-1-yl)ethyl)-N-methylacetamide], the Ki in test [1] was 0.7 nM. The IC50 in test [1] (setting [4]) is 5.36 nM. Besides, the inhibition at 10 µM in test [2] amounted to 87.1%. The compound also gave a 50% effective concentration (EC50) in test [3] of 0.311 nM.

With `CN(C(=O)Cc1ccc(Cl)c(Cl)c1)[C@H](CN1CCCC1)c1cccc(NS(=O)(=O)c2cc(Cl)c(Cl)s2)c1` [Example 10, (S)-2-(3,4-dichlorophenyl)-N-(1-(3-(4,5-dichlorothiophene-2-sulfonamido)phenyl)-2-(pyrrolidin-1-yl)ethyl)-N-methylacetamide], in test [1], the Ki came out at 1.25 nM. Further, in test [1] (setting [4]), the IC50 came out at 9.61 nM. Moreover, in test [2], the inhibition at 10 µM was 95.9%. The compound further yielded an EC50 in test [3] of 3.74 nM.

As to `CN(C(=O)Cc1ccc(Cl)c(Cl)c1)[C@H](CN1CCCC1)c1cccc(NS(=O)(=O)c2ccc(C#N)c(C(F)(F)F)c2)c1` [Example 1, (S)—N-(1-(3-(4-cyano-3-(trifluoromethyl)phenylsulfonamido)phenyl)-2-(pyrrolidin-1-yl)ethyl)-2-(3,4-dichlorophenyl)-N-methylacetamide], the Ki in test [1] turned out to be 4.84 nM. Also, the IC50 in test [1] (setting [4]) amounted to 37.1 nM. The inhibition at 10 µM in test [2] worked out at 89%. Moreover, in test [3], the response was half-maximal at 2 nM (EC50).

Consider `CN(C(=O)Cc1ccc(Cl)c(Cl)c1)[C@H](CN1CCCC1)c1cccc(NS(=O)(=O)c2ccc(Cl)nc2)c1` [Example 3, (S)—N-(1-(3-(6-chloropyridine-3-sulfonamido)phenyl)-2-(pyrrolidin-1-yl)ethyl)-2-(3,4-dichlorophenyl)-N-methylacetamide], for which the inhibitory constant (Ki) in test [1] came out at 0.36 nM. The IC50 in test [1] (setting [4]) came to 2.79 nM. For the same compound, the inhibition at 10 µM in test [2] was 94.2%. The compound further returned a concentration giving a half-maximal response (EC50) in test [3] of 0.29 nM.

In the case of `Cc1noc(C)c1S(=O)(=O)Nc1cccc([C@@H](CN2CCCC2)N(C)C(=O)Cc2ccc(Cl)c(Cl)c2)c1` [Example 6, (S)-2-(3,4-dichlorophenyl)-N-(1-(3-(3,5-dimethylisoxazole-4-sulfonamido)phenyl)-2-(pyrrolidin-1-yl)ethyl)-N-methylacetamide], the Ki in test [1] is 0.39 nM. Further, in test [1] (setting [4]), the 50% inhibitory concentration (IC50) came out at 3.01 nM. Also, the inhibition at 10 µM in test [2] was 84.6%. Moreover, in test [3], it took 1.15 nM to reach a half-maximal effect (EC50).

On to `CC(O)CS(=O)(=O)Nc1cccc([C@@H](CN2CCCC2)N(C)C(=O)C(c2ccccc2)c2ccccc2)c1` (stereo partly drawn) [Example 12, N-((1S)-1-(3-(2-hydroxypropylsulfonamido)phenyl)-2-(pyrrolidin-1-yl)ethyl)-N-methyl-2,2-diphenylacetamide], for which, in test [1], the inhibition constant (Ki) stood at 48.8 nM. Moreover, the IC50 in test [1] (setting [4]) was found to be 374 nM. Further, the inhibition at 10 µM in test [2] came out at 47%. Moreover, a half-maximal effect in test [3] (EC50) was put at 18.5 nM.

In the case of `CN(C(=O)C(c1ccccc1)c1ccccc1)[C@H](CN1CCCC1)c1cccc(NS(=O)(=O)CCOCC(F)(F)F)c1` [Example 11, (S)—N-methyl-2,2-diphenyl-N-(2-(pyrrolidin-1-yl)-1-(3-(2-(2,2,2-trifluoroethoxy)ethylsulfonamido)phenyl)ethyl)acetamide], the Ki in test [1] was found to be 45 nM. In test [1] (setting [4]), the IC50 was determined as 345 nM. Further, the inhibition at 10 µM in test [2] came to 57.6%. The response in test [3] was half-maximal at 28.8 nM (EC50).
